Data taken from article PMC6990405, “Synthesis and Structure–Activity relationship of 1-(5-isoquinolinesulfonyl)piperazine analogues as inhibitors of Mycobacterium tuberculosis IMPDH” (European Journal of Medicinal Chemistry, 2019).
≈ marks a conversion by molar mass, not a printed value. Like-named read-outs stand apart in the source and are kept apart here.

Columns and labels:
[1] = biological target: Mycobacterium thermoresistible (Mth) IMPDH ΔCBS (Mycobacterium thermoresistible) (UniProt G7CNL4); assay: crystal structure
M. tuberculosis = system: M. tuberculosis; parameters: method as in PMID 20934382; conditions: cited from earlier work
[2] = system: wild-type M. tuberculosis strain H37Rv; assay: microbe, parasite or virus in culture; format: cell-based; conditions: wild-type M. tuberculosis H37Rv, read-out: MIC90 against WT
Mtb IMPDH = biological target: T1, Mtb IMPDH (Mycobacterium tuberculosis, UniProt P9WKI7); assay: IMPDH biochemical assay (inhibition of Mtb GuaB2); conditions: Mtb IMPDH (GuaB2) enzyme
T1 construct: made in house

[3] = Mycobacterium tuberculosis, H37RV

Mycobacterium thermoresistible (Mth) IMPDH ΔCBS (from UniProt G7CNL4 1-513) (enzyme)
stoichiometry N [1]: 4

O=S(=O)(c1cccc2cnccc12)N1CCNCC1 [5-(piperazin-1-ylsulfonyl)isoquinoline]
MIC against M. tuberculosis (M. tuberculosis): no MIC

O=C(Cc1ccc(F)cc1)N1CCN(S(=O)(=O)c2cccc3cnccc23)CC1 [Compound 29, 2-(4-fluorophenyl)-1-(4-(isoquinolin-5-ylsulfonyl)piperazin-1-yl)ethan-1-one]
MIC90 [2, 3]: 25 µM (≈ 10.3 µg/mL) | IC50 (Mtb IMPDH): 680 ± 50 nM

O=C(NCc1ccccc1)N1CCN(S(=O)(=O)c2cccc3cnccc23)CC1 [Compound 46, N-benzyl-4-(isoquinolin-5-ylsulfonyl)piperazine-1-carboxamide]
MIC90 [2, 3]: 3.1 µM (≈ 1.27 µg/mL) | IC50 (Mtb IMPDH): 350 ± 30 nM

CC(C)(C)C(=O)N1CCN(S(=O)(=O)c2cccc3cnccc23)CC1 [Compound 11, 1-[4-(isoquinoline-5-sulfonyl)piperazin-1-yl]-2,2-dimethylpropan-1-one]
MIC90 [2, 3]: 100 µM (≈ 36.1 µg/mL) | IC50 (Mtb IMPDH): 2800 ± 200 nM

O=C(Nc1ccc(Cl)c(C(F)(F)F)c1)N1CCN(S(=O)(=O)c2cccc3cnccc23)CC1 [Compound 34, N-(4-chloro-3-(trifluoromethyl)phenyl)-4-(isoquinolin-5-ylsulfonyl)piperazine-1-carboxamide]
MIC90 [2, 3]: 25 µM (≈ 12.5 µg/mL) | IC50 (Mtb IMPDH): 160 ± 100 nM

Cc1ccc(NC(=O)N2CCN(S(=O)(=O)c3cccc4cnccc34)CC2)c([N+](=O)[O-])c1 [Compound 39, 4-(isoquinolin-5-ylsulfonyl)-N-(4-methyl-2-nitrophenyl)piperazine-1-carboxamide]
MIC90 [2]: 25 µM (≈ 11.4 µg/mL) | IC50 (Mtb IMPDH): 600 ± 30 nM

O=C(C1CCCCCC1)N1CCN(S(=O)(=O)c2cccc3cnccc23)CC1 [Compound 14, Cycloheptyl[4-(isoquinoline-5-sulfonyl)piperazin-1-yl]methanone]
MIC90 [2, 3]: 31.2 µM (≈ 12.5 µg/mL) | IC50 (Mtb IMPDH): 830 ± 40 nM

Cc1ccccc1CNC(=O)N1CCN(S(=O)(=O)c2cccc3cnccc23)CC1 [Compound 48, 4-(isoquinolin-5-ylsulfonyl)-N-(2-methylbenzyl)piperazine-1-carboxamide]
MIC90 [2, 3]: 3.9 µM (≈ 1.66 µg/mL) | IC50 (Mtb IMPDH): 270 ± 30 nM

CC1CN(S(=O)(=O)c2cccc3cnccc23)CCN1C(=O)Nc1ccc2c(c1)OCO2 (centres unmarked) [Compound 45, N-(benzo[d][1,3]dioxol-5-yl)-4-(isoquinolin-5-ylsulfonyl)-2-methylpiperazine-1-carboxamide]
MIC90 [2, 3]: 12.5 µM (≈ 5.68 µg/mL) | IC50 (Mtb IMPDH): 120 ± 20 nM

O=C(c1cc([N+](=O)[O-])cc([N+](=O)[O-])c1)N1CCN(S(=O)(=O)c2cccc3cnccc23)CC1 [Compound 19, [4-(isoquinoline-5-sulfonyl)piperazin-1-yl](3,5-dinitrophenyl)methanone]
MIC90 [2, 3]: 12.5 µM (≈ 5.89 µg/mL) | IC50 (Mtb IMPDH): 1400 ± 10 nM

N#Cc1ccc(C(=O)N2CCN(S(=O)(=O)c3cccc4cnccc34)CC2)cc1 [Compound 17, 4-[4-(isoquinoline-5-sulfonyl)piperazine-1-carbonyl]benzonitrile]
MIC90 [2, 3]: 100 µM (≈ 40.6 µg/mL) | IC50 (Mtb IMPDH): 16500 ± 500 nM

O=C(Cc1cccc(O)c1)N1CCN(S(=O)(=O)c2cccc3cnccc23)CC1 [Compound 25, 2-(3-hydroxyphenyl)-1-[4-(isoquinoline-5-sulfonyl)piperazin-1-yl]ethan-1-one]
MIC90 [2, 3]: 125 µM (≈ 51.4 µg/mL) | IC50 (Mtb IMPDH): 4000 ± 200 nM

O=C(Nc1cccc(Cl)c1Cl)N1CCN(S(=O)(=O)c2cccc3cnccc23)CC1 [Compound 37, N-(2,3-dichlorophenyl)-4-(isoquinolin-5-ylsulfonyl)piperazine-1-carboxamide]
MIC90 [2, 3]: 125 µM (≈ 58.2 µg/mL) | IC50 (Mtb IMPDH): 900 ± 60 nM
